Article PMC6385645 (Chemical Science, 2018)
Ends that are not written are not given here. Peptide text beside a SMILES is read from it. * marks the point of attachment. X1 = Nc1ncnc2c1ncn2[C@@H]1O[C@H](COP(=O)(O)NC(=O)[C@H](CC(=O)O)N*)[C@@H](O)[C@H]1O; For = O=C*

Tests used:
wild type MccB = assay: Competition FP binding assay, wild type MccB, fMccA-FITC probe; design: species or system E. coli; details: even at concentrations greater than 5 mM
MccB = assay: PNP-coupled Michaelis–Menten kinetics of MccB; details: wild-type MccB
YejABEF importer = details: 4 vs the peptide lacking the N-formyl moiety 3; cited from earlier work

Compound | displacement of bound FITC-labeled N-formylated 2 (wild type MccB) | substrate inhibition of MccB (MccB) | substrate quality for YejABEF importer (YejABEF importer)
MRTGNAN [compound 1] | could not displace | but not with the desformyl 1 peptide | –
CSCC[C@H](NC=O)C(=O)N[C@@H](CCCNC(=N)N)C(=O)N[C@H](C(=O)NCC(=O)N[C@@H](CC(N)=O)C(=O)N[C@@H](C)C(=O)N[C@@H](CC(=O)O)C(=O)NP(=O)(O)OC[C@H]1O[C@@H](n2cnc3c(N)ncnc32)[C@H](O)[C@@H]1O)[C@@H](C)O [compound 4] (For-MRTGNA-X1) | – | – | significantly better substrate
